The results in this text go back to patent EP1824486B1, “BENZDIOXANE PIPERAZINE DERIVATIVES WITH A COMBINATION OF AFFINITY FOR DOPAMINE-D2 RECEPTORS AND SEROTONIN REUPTAKE SITES” (Solvay Pharmaceuticals B.V., priority 2004, dated 2006).

One test has as its target T1, dopamine D2 receptors (Mus musculus, UniProt P61168).
T1 construct: antagonize apomorphine-induced climbing behaviour in mice; from tissue; host or cells: living mice (in vivo behavioural model)
Briefly: Antagonism of apomorphine-induced climbing behaviour in mice (APO-climb). To be noted: po, read-out: in vivo activity Dopamine-D2 APO-climb* ED50 mg/kg po.

The next test concerns the target T2, serotonin reuptake sites (Rattus norvegicus, UniProt P31652).
T2 construct: from tissue; host or cells: rat cortical membranes (from the title of the cited method only)
Briefly: In vitro affinity for serotonin reuptake sites ([3H]-paroxetine binding assay, Habert et al.). To be noted: average values from three independent experiments; read-out: in vitro affinity 5-HT reuptake binding Ki. The text has this: In vitro affinity for serotonin reuptake sites

In the next test the target is T3, serotonin reuptake (Mus musculus, UniProt Q60857).
T3 construct: they potentiate 5-HTP induced behaviour in mice; from tissue; host or cells: living mice (in vivo behavioural model)
T3 sequence (Q60857 whole entry): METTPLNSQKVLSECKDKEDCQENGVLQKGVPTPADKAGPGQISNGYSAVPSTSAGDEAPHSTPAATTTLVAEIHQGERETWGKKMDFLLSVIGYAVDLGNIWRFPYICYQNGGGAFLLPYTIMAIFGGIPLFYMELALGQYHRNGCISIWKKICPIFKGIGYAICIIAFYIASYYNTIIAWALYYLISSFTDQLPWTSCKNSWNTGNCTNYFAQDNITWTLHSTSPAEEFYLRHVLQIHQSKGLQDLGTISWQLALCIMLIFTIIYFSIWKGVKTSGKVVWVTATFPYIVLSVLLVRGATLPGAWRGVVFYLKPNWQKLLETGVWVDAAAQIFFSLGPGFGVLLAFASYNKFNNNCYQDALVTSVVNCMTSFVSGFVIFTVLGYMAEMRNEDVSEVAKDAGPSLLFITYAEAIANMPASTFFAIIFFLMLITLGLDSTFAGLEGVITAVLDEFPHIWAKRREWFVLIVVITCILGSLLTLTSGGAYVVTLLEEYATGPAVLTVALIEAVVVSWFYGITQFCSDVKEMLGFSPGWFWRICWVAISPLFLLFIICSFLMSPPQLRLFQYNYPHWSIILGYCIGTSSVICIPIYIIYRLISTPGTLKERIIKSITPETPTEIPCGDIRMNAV
The experiment in a line: Potentiation of 5-HTP induced behaviour in mice. To be noted: po, read-out: in vivo activity 5-HT reuptake 5-HTP** ED50 mg/kg po.

Usually Ki stands for a measure of affinity in units of concentration, obtained from inhibition or displacement.

Each structure is given as a SMILES string.

T1 sequence (P61168 whole entry): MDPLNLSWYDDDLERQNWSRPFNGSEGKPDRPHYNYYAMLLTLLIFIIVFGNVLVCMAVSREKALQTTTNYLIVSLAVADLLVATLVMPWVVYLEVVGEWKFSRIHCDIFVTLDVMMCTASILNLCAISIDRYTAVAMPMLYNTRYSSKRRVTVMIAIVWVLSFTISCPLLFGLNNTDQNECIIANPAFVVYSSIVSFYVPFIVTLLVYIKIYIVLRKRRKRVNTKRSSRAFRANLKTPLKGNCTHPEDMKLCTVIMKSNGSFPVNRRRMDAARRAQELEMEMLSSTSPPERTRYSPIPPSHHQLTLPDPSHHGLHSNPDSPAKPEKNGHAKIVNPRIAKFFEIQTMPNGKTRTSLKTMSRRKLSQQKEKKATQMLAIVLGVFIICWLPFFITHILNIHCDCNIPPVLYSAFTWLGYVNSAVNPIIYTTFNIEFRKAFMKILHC
T2 sequence (P31652 whole entry): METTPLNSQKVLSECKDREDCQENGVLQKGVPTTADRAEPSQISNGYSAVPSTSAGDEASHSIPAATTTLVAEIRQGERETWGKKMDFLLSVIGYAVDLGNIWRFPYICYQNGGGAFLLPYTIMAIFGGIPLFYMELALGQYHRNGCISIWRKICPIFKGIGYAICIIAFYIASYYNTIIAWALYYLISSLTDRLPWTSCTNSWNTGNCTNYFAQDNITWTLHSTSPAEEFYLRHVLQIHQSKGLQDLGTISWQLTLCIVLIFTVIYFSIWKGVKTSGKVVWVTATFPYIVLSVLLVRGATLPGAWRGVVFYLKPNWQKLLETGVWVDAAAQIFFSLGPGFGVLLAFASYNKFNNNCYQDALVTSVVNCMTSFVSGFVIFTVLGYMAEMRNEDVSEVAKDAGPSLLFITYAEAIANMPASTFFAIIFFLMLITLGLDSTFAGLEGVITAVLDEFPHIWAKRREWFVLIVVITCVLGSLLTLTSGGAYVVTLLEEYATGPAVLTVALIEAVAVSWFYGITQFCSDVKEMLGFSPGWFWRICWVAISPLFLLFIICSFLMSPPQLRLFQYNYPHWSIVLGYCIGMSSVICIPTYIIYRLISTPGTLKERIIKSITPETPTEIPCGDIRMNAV

As for `Fc1ccc2c(CCCN3CCN(c4cccc5c4OCCO5)CC3)c[nH]c2c1` [compound 5f, 3-{3-[4-(2,3-Dihydro-benzo[1,4]dioxin-5-yl)-piperazin-1-yl]-propyl}-6-fluoro-1H-indole], the ED50 on dopamine D2 receptors was 9 mg/kg. On serotonin reuptake sites, the inhibition constant (Ki) came to 1.6 ± 0.2 nM. In the case of `c1cc2c(c(N3CCN(CCCc4c[nH]c5ccccc45)CC3)c1)OCCO2` [compound 5b, 3-{3-[4-(2,3-Dihydro-benzo[1,4]dioxin-5-yl)-piperazin-1-yl]-propyl}-1H-indole], the ED50 on serotonin reuptake is 22 mg/kg; on dopamine D2 receptors, 10 mg/kg. For the same compound, the inhibition constant Ki on serotonin reuptake sites was determined as 0.4 ± 0.1 nM. `c1cc2c(c(N3CCN(CCCCCc4c[nH]c5ccccc45)CC3)c1)OCCO2` [compound 5c, 3-{5-[4-(2,3-Dihydro-benzo[1,4]dioxin-5-yl)-piperazin-1-yl]-pentyl}-1H-indole]: the inhibitory constant (Ki) on serotonin reuptake sites turned out to be 37 ± 3 nM. `Fc1ccc2[nH]cc(CCCN3CCN(c4cccc5c4OCCO5)CC3)c2c1` [compound 5e, 3-{3-[4-(2,3-Dihydro-benzo[1,4]dioxin-5-yl)-piperazin-1-yl]-propyl}-5-fluoro-1H-indole]: the ED50 on serotonin reuptake came to 2 mg/kg. Further, the inhibitory constant (Ki) at serotonin reuptake sites worked out at 0.3 ± 0.1 nM. For the compound `Clc1cccc2c(CCCN3CCN(c4cccc5c4OCCO5)CC3)c[nH]c12` [5l, 3-{3-[4-(2,3-Dihydro-benzo[1,4]dioxin-5-yl)-piperazin-1-yl]-propyl}-7-chloro-1H-indole], the Ki at serotonin reuptake sites stood at 7.9 ± 2.8 nM.

Consider `Cc1cccc2c(CCCN3CCN(c4cccc5c4OCCO5)CC3)c[nH]c12` [compound 5n, 3-{3-[4-(2,3-Dihydro-benzo[1,4]dioxin-5-yl)-piperazin-1-yl]-propyl}-7-methyl-1H-indole], for which, on serotonin reuptake sites, the inhibitory constant (Ki) was 12 ± 5 nM. Still for that read-out and setting: in the case of `COc1ccc2[nH]cc(CCCN3CCN(c4cccc5c4OCCO5)CC3)c2c1` [compound 5h, 3-{3-[4-(2,3-Dihydro-benzo[1,4]dioxin-5-yl)-piperazin-1-yl]-propyl}-5-methoxy-1H-indole] it was 14 ± 4 nM. Consider `Fc1cccc2c(CCCN3CCN(c4cccc5c4OCCO5)CC3)c[nH]c12` [compound 5g, 3-{3-[4-(2,3-Dihydro-benzo[1,4]dioxin-5-yl)-piperazin-1yl]-propyl}-7-fluoro-1H-indole], for which the ED50 on serotonin reuptake amounted to 28.4 mg/kg. The Ki on serotonin reuptake sites came to 0.6 ± 0.1 nM.

Take `Clc1ccc2c(CCCN3CCN(c4cccc5c4OCCO5)CC3)c[nH]c2c1` [compound 5k, 3-{3-[4-(2,3-Dihydro-benzo[1,4]dioxin-5-yl)-piperazin-1-yl]-propyl}-6-chloro-1H-indole]: the ED50 came to 86 mg/kg at serotonin reuptake and 4.5 mg/kg on dopamine D2 receptors. For the same compound, the inhibition constant (Ki) on serotonin reuptake sites was determined as 2 ± 0.7 nM. Turning to `c1cc2c(c(N3CCN(CCCc4c[nH]c5ccccc45)CC3)c1)CCCO2` [compound 14, 3-[3-(4-chroman-5-yl-piperazine-1-yl)-propyl]-1H-indole], at serotonin reuptake sites, the Ki worked out at 1.1 ± 0.3 nM. As to `c1cc2c(c(N3CCN(Cc4c[nH]c5ccccc45)CC3)c1)OCCO2` [compound 5a, 3-[4-(2,3-Dihydro-benzo[1,4]dioxin-5-yl)-piperazin-1-yl-methyl]-1H-indole], on serotonin reuptake sites, the Ki was 176 ± 59 nM. For `Clc1cccc2[nH]cc(CCCN3CCN(c4cccc5c4OCCO5)CC3)c12` [compound 5i, 3-{3-[4-(2,3-Dihydro-benzo[1,4]dioxin-5-yl)-piperazin-1-yl]-propyl}-4-chloro-1H-indole], the Ki at serotonin reuptake sites was 1.4 ± 0.4 nM. Regarding `Fc1cccc2[nH]cc(CCCN3CCN(c4cccc5c4OCCO5)CC3)c12` [compound 5d, 3-{3-[4-(2,3-Dihydro-benzo[1,4]dioxin-5-yl)-piperazin-1-yl]-propyl}-4-fluoro-1H-indole], the ED50 is 32 mg/kg on serotonin reuptake and 13 mg/kg at dopamine D2 receptors. The Ki at serotonin reuptake sites was found to be 0.4 ± 0.1 nM.
